Values joined by “and” are separate entries in the source; they are usually repeats but may differ in a detail not shown here. Equal entries are not always repeated. Inconclusive results and toxic doses are left out. Numbered stars: 1 amine (or outer) side, 2 acyl side, 3 side chain; on linkers, the order of the positions; unused ones are H or OH. Bridge positions count the residues as written; N and C are the ends. Square brackets hold non-standard residues; d marks the D form. Peptide text beside a SMILES is read from it. I, II: the chains in the order shown. Actinocin(9to1) = Cc1c2oc3c(C)ccc(C(=O)[*:1])c3nc-2c(C(=O)[*:2])c(N)c1=O; NMeV = CN[CH](C(=O)O)C(C)C; Sar = CNCC(=O)O
Tested on: BDF1 mice, B16 melanoma ip, median survival T/C
Assay: NCI In Vivo Anticancer Drug Screen. Data for tumor model B16 Melanoma (intraperitoneal) in B6D2F1 (BDF1) mice
Conditions: endpoint: median survival time, higher = longer survival
How it was run: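 Tumor-bearing mice received test compound or vehicle. Survival or tumor size was then measured in both groups. The treated-group figure was divided by the control-group figure.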

[1] = dose: 25.0 mg/kg/injection, schedule: Q01DX009 (ip), vehicle: Klucel (hydroxypropylcellulose) (HPC)
[2] = dose: 50.0 mg/kg/injection, schedule: Q01DX009 (ip), vehicle: Klucel (hydroxypropylcellulose) (HPC)
[3] = dose: 100.0 mg/kg/injection, schedule: Q01DX009 (ip), vehicle: Klucel (hydroxypropylcellulose) (HPC)
[4] = dose: 200.0 mg/kg/injection, schedule: Q01DX009 (ip), vehicle: Klucel (hydroxypropylcellulose) (HPC)
[5] = dose: 400.0 mg/kg/injection, schedule: Q01DX009 (ip), vehicle: Klucel (hydroxypropylcellulose) (HPC)
[6] = dose: 100.0 mg/kg/injection, schedule: Q01DX009 (ip), vehicle: saline
[7] = dose: 12.5 mg/kg/injection, schedule: Q01DX009 (ip), vehicle: Klucel (hydroxypropylcellulose) (HPC)
[8] = dose: 6.25 mg/kg/injection, schedule: Q01DX009 (ip), vehicle: saline
[9] = dose: 12.5 mg/kg/injection, schedule: Q01DX009 (ip), vehicle: saline
[10] = dose: 25.0 mg/kg/injection, schedule: Q01DX009 (ip), vehicle: saline
[11] = dose: 50.0 mg/kg/injection, schedule: Q01DX009 (ip), vehicle: saline
[12] = dose: 3.12 mg/kg/injection, schedule: Q01DX009 (ip), vehicle: Klucel (hydroxypropylcellulose) (HPC)
[13] = dose: 6.25 mg/kg/injection, schedule: Q01DX009 (ip), vehicle: Klucel (hydroxypropylcellulose) (HPC)
[14] = dose: 100.0 mg/kg/injection, schedule: Q04DX003 (ip), vehicle: saline with Tween-80

Cc1c2oc3c(C)ccc(C(=O)NC4C(=O)NC(C(C)C)C(=O)N(C)CC(=O)N(C)CC(=O)N(C)C(C(C)C)C(=O)OC4C)c3nc-2c(C(=O)NC2C(=O)NC(C(C)C)C(=O)N(C)CC(=O)N(C)CC(=O)N(C)C(C(C)C)C(=O)OC2C)c(N)c1=O (configuration not stated) (I: TV[Sar][Sar][NMeV] / II: TV[Sar][Sar][NMeV]; ester I:1-I:C, II:1-II:C; linker I:N-II:N via Actinocin(9to1); configuration not given here)
T/C (dose: 0.71 mg/kg/injection, schedule: Q01DX009 (ip), vehicle: water): 161 % of control
T/C (dose: 1.07 mg/kg/injection, schedule: Q01DX009 (ip), vehicle: water): 161 % of control
T/C (dose: 125.0 micrograms/kg/injection, schedule: Q01DX009 (ip), vehicle: saline + alcohol): 112 % of control
T/C (dose: 375.0 micrograms/kg/injection, schedule: Q04DX003 (ip), vehicle: saline + alcohol): 117 % of control and 123 % of control
T/C (dose: 1500.0 micrograms/kg/injection, schedule: Q04DX003 (ip), vehicle: saline + alcohol): 162 % of control
T/C (dose: 3000.0 micrograms/kg/injection, schedule: Q04DX003 (ip), vehicle: saline + alcohol): 159 % of control

O=c1[nH]cc(F)c(=O)[nH]1.[Tl]
T/C (dose: 1.25 mg/kg/injection, schedule: Q01DX009 (ip), vehicle: water): 95 % of control
T/C (dose: 2.5 mg/kg/injection, schedule: Q01DX009 (ip), vehicle: water): 100 % of control
T/C (dose: 5.0 mg/kg/injection, schedule: Q01DX009 (ip), vehicle: water): 102 % of control
T/C (dose: 10.0 mg/kg/injection, schedule: Q01DX009 (ip), vehicle: water): 113 % of control

C[NH-].C[NH-].C[NH-].C[NH-].[Cl][Rh][Cl]
T/C [1]: 114 % of control
T/C [2]: 120 % of control
T/C [3]: 105 % of control

C[As](C)Sc1ccnc(S[As](C)C)n1
T/C [2]: 100 % of control
T/C [3]: 119 % of control

CCCCN(CCCC)/N=C\C1=C2NC(=O)/C(C)=C\C=C/C(OC)C(OC(N)=O)/C(C)=C/C(C)C(O)C(OC)CC(C)CC(=C(OC)C1=O)C2=O (configuration not stated)
T/C (dose: 12.5 mg/kg/injection, schedule: Q01DX005 (ip), vehicle: other): 103 % of control
T/C (dose: 25.0 mg/kg/injection, schedule: Q01DX005 (ip), vehicle: other): 94 % of control
T/C (dose: 50.0 mg/kg/injection, schedule: Q01DX005 (ip), vehicle: other): 90 % of control
T/C (dose: 100.0 mg/kg/injection, schedule: Q01DX005 (ip), vehicle: other): 95 % of control
T/C (dose: 200.0 mg/kg/injection, schedule: Q01DX005 (ip), vehicle: other): 93 % of control

Cc1[nH]c(=O)[nH]c(=O)c1NC(=O)c1ccccc1[N+](=O)[O-]
T/C (dose: 12.5 mg/kg/injection, schedule: Q01DX009 (ip), vehicle: saline with Tween-80): 100 % of control
T/C (dose: 25.0 mg/kg/injection, schedule: Q01DX009 (ip), vehicle: saline with Tween-80): 102 % of control
T/C (dose: 50.0 mg/kg/injection, schedule: Q01DX009 (ip), vehicle: saline with Tween-80): 102 % of control

CCOC(=O)c1cncc(C(=O)OCC)c1
T/C [3]: 107 % of control
T/C [4]: 113 % of control
T/C [5]: 106 % of control

O=C(O)C1(NO)CCCC1
T/C [6]: 87 % of control

Nc1ccc(S(=O)(=O)CCCl)cc1
T/C (dose: 12.5 mg/kg/injection, schedule: Q04DX003 (ip), vehicle: Klucel (hydroxypropylcellulose) (HPC)): 100 % of control
T/C (dose: 25.0 mg/kg/injection, schedule: Q04DX003 (ip), vehicle: Klucel (hydroxypropylcellulose) (HPC)): 105 % of control
T/C (dose: 200.0 mg/kg/injection, schedule: Q04DX003 (ip), vehicle: Klucel (hydroxypropylcellulose) (HPC)): 99 % of control

CC(C)N(C(=O)c1ccccc1Cl)c1ccccc1
T/C [1]: 93 % of control
T/C [3]: 106 % of control

CCOC(=O)/C=C(\CBr)OC
T/C [7]: 105 % of control
T/C [1]: 93 % of control

Oc1ccccc1/C=N/NC(=S)NC1CC2C=CC1C2 (configuration not stated)
T/C (dose: 50.0 mg/kg/injection, schedule: Q01DX009 (ip), vehicle: olive oil, sesame oil, peanut oil): 88 % of control

CC1OC(O[C@H]2/C=C/C=C/C=C/C=C/C=C/C=C/C=C/[C@H](C)[C@@H](O)[C@@H](C)[C@H](C)OC(=O)C[C@H](O)C[C@H](O)CC[C@@H](O)[C@H](O)C[C@H](O)C[C@]3(O)C[C@H](O)[C@@H](C(=O)O)[C@H](C2)O3)C(O)C(N)C1O (some centres not stated)
T/C (dose: 1.0 mg/kg/injection, schedule: Q01DX009 (ip), vehicle: saline): 102 % of control and 124 % of control
T/C (dose: 2.0 mg/kg/injection, schedule: Q01DX009 (ip), vehicle: saline): 106 % of control and 113 % of control
T/C (dose: 4.0 mg/kg/injection, schedule: Q01DX009 (ip), vehicle: saline): 97 % of control and 116 % of control
T/C (dose: 8.0 mg/kg/injection, schedule: Q01DX009 (ip), vehicle: saline): 92 % of control and 102 % of control
T/C (dose: 16.0 mg/kg/injection, schedule: Q01DX009 (ip), vehicle: saline): 88 % of control and 98 % of control

CCC(=O)OC1(c2ccccc2)CCN(C)C1C (configuration not stated)
T/C [8]: 102 % of control
T/C [9]: 102 % of control
T/C [10]: 95 % of control
T/C [11]: 97 % of control
T/C [6]: 90 % of control

CCC[CH2][Sn]([Cl])([CH2]CCC)[S]C(=S)NCCNC(=S)[S][Sn]([Cl])([CH2]CCC)[CH2]CCC
T/C [12]: 94 % of control
T/C [13]: 96 % of control
T/C [7]: 101 % of control

CCCCn1cnc2c(N)ncnc21
T/C [7]: 92 % of control
T/C [2]: 87 % of control

Clc1ccc(C(c2ccc(Cl)cc2)C(Cl)(Cl)Cl)cc1
T/C (dose: 16.0 mg/kg/injection, schedule: Q01DX009 (ip), vehicle: Klucel (hydroxypropylcellulose) (HPC)): 101 % of control
T/C (dose: 32.0 mg/kg/injection, schedule: Q01DX009 (ip), vehicle: Klucel (hydroxypropylcellulose) (HPC)): 92 % of control

Cc1cccc(NC(=O)c2ccccc2C(=O)O)c1C
T/C [3]: 94 % of control
T/C [4]: 94 % of control
T/C [5]: 97 % of control

CC1(C)N=C(N)N=C(N)N1c1ccc(CNC(=O)Nc2ccc(S(=O)(=O)F)cc2)cc1
T/C (dose: 50.0 mg/kg/injection, schedule: Q04DX003 (ip), vehicle: saline): 112 % of control

COc1ccc2c(c1)C13CCCCC1C(C2)N(CC1(c2ccccc2)CC1)CC3 (configuration not stated)
T/C (dose: 4.1 mg/kg/injection, schedule: Q01DX009 (ip), vehicle: Klucel (hydroxypropylcellulose) (HPC)): 93 % of control
T/C [13]: 93 % of control
T/C (dose: 9.3 mg/kg/injection, schedule: Q01DX009 (ip), vehicle: Klucel (hydroxypropylcellulose) (HPC)): 93 % of control and 109 % of control
T/C [7]: 119 % of control
T/C [1]: 121 % of control
T/C [2]: 97 % of control

c1cc2cc3c(cc2c2c1CC1c4cc5c(cc4CCN1C2)OCO5)OCO3 (configuration not stated)
T/C [3]: 89 % of control
T/C [4]: 86 % of control

CCC(CC)(COC(N)=O)COC(N)=O
T/C (dose: 0.78 mg/kg/injection, schedule: Q01DX009 (ip), vehicle: Klucel (hydroxypropylcellulose) (HPC)): 89 % of control
T/C (dose: 1.56 mg/kg/injection, schedule: Q01DX009 (ip), vehicle: Klucel (hydroxypropylcellulose) (HPC)): 93 % of control
T/C [12]: 95 % of control
T/C [13]: 97 % of control
T/C [7]: 86 % of control

OCCOCCN1CCN(C(c2ccccc2)c2ccc(Cl)cc2)CC1 (configuration not stated)
T/C (dose: 3.12 mg/kg/injection, schedule: Q01DX009 (ip), vehicle: saline): 97 % of control
T/C [8]: 102 % of control
T/C [9]: 105 % of control
T/C [10]: 97 % of control
T/C [11]: 100 % of control
T/C [6]: 102 % of control

Oc1ccc2ccccc2c1N=Nc1ccc(Cl)cc1
T/C (dose: 400.0 mg/kg/injection, schedule: Q01DX009 (ip), vehicle: saline with Tween-80): 90 % of control

O=C1NC(C2CCC3CN32)C(=O)NC1C1CCC2CN21 (configuration not stated)
T/C (dose: 0.05 mg/kg/injection, schedule: Q01DX009 (ip), vehicle: saline): 102 % of control
T/C (dose: 0.1 mg/kg/injection, schedule: Q01DX009 (ip), vehicle: saline): 107 % of control
T/C (dose: 0.2 mg/kg/injection, schedule: Q01DX009 (ip), vehicle: saline): 108 % of control
T/C (dose: 0.4 mg/kg/injection, schedule: Q01DX009 (ip), vehicle: saline): 115 % of control

COC(=O)C(Cc1c[nH]c2ccccc12)NC(=O)C(NC(=O)OC(C)(C)C)C(C)C (configuration not stated)
T/C [2]: 91 % of control

CC12NC(=O)NC1(C)NC(=O)N2 (configuration not stated)
T/C [14]: 100 % of control

CC(=O)OCC(CCC(C)C)=C(C)C
T/C (dose: 25.0 mg/kg/injection, schedule: Q04DX003 (ip), vehicle: saline with Tween-80): 104 % of control
T/C (dose: 50.0 mg/kg/injection, schedule: Q04DX003 (ip), vehicle: saline with Tween-80): 104 % of control
T/C (dose: 100.0 mg/kg/injection, schedule: Q01DX009 (ip), vehicle: saline with Tween-80): 97 % of control
T/C [14]: 86 % of control and 97 % of control
T/C (dose: 200.0 mg/kg/injection, schedule: Q01DX009 (ip), vehicle: saline with Tween-80): 104 % of control

From PubChem BioAssay AID192 (DTP/NCI, 2004)
